Assay results as given in patent publication US4665064A, “Pharmaceutical compositions and methods for increasing zinc levels” (National Research Development Corporation, priority 1983, dated 1987).
Like-named read-outs stand apart in the source and are kept apart here.

Tests used:
[1] = recognised property; in words; cited from earlier work
[2] = tested on: apotransferrin; assay: Ability of zinc complexes to donate zinc to apotransferrin; format: biochemical; details: apotransferrin 10^-4 M, ZnSO4 10^-4 M with 10 molar proportion of maltol, pH 7.4, 37° C., 10 minutes
Experimental: Apotransferrin (10^-4 M) and the ^65 Zn radiolabelled zinc complex of maltol (the complex being prepared in situ in the buffer using ^65 Zn radiolabelled ZnSO4 at a concentration of 10^-4 M and a 10 molar proportion of maltol) were incubated together in Tris hydrochloride (50 mM, buffered to pH 7.4) at 37° C. for 10 minutes when a 1 ml aliquot was removed from the medium and added to a PD10 column. 0.5 ml fractions were collected directly into scintillation vials for counting.

[3] = tested on: everted rat jejunum
[4] = in words
[5] = tested on: inverted rat jejunal sac; format: in vitro ADME, rat (male Sprague Dawley); details: 37° C., up to 1 hour, Krebs Ringer buffer
From the text: In the case of the hydroxypyrone ligands it will be seen that the uptake again increases with the increase in the amount of free compound which is present as a result of an increase in the amount of the 2:1 complex which is present.

[6] = physchem; format: physicochemical; details: for Kpart compared with maltol (compound and its 2:1 zinc complex): in words
Experimental: A good indication of the physical properties of a ligand-providing compound and of an zinc complex in this respect is provided by the value of the partition coefficient (Kpart)obtained on partition between n-octanol and Tris hydrochloride (20 mM, pH 7.4; Tris representing 2-amino-2 hydroxymethylpropane 1,3-diol) at 20° C. and expressed as the ratio (concentration in organic phase)/(concentration in aqueous phase). Preferred complexes show a value of Kpart for each ligand-providing compound of above 0.02 or 0.05 but less than 3.0, especially of above 0.2 but less than 1.0, together with a value of Kpart for the 2:1 zinc(II) complex of above 0.02 but less than 6.0, especially of 0.05 or 0.1 to 1.0. The value of Kpart for maltol is 0.66 and for the neutral 2:1 maltol:zinc complex is 0.11 which values lie in the especially preferred ranges. It will be appreciated, however, that the wide range of ligands which may be present in zinc complexes according to the present invention allows the preparation of complexes having partition coefficients lying throughout the entire ranges given. Thus, for example, a 2:1 complex having a higher partition coefficient than 0.1 may be obtained by using maltol as one ligand and another compound as the second ligand. Alternatively, higher partition coefficients may be obtained, if desired, by the use of hydroxypyrone compounds containing additional and/or larger aliphatic hydrocarbon group substituents on the ring.
Partition data on zinc complexes and on ligand-providing compounds
The partition coefficient Kpart, being the ratio (concentration in n-octanol)/(concentration in aqueous phase) on partition between n-octanol and aqueous tris hydrochloride (20 mM, pH 7.4; Tris represents 2-amino-2-hydroxymethylpropane 1,3-diol), is measured at 20° C. for zinc complexes containing various ligands and for their corresponding ligand-providing compounds as listed in Table 1. In the case of certain of the complexes the partition coefficient for the 2:1 ligand:zinc(II) complex is also measured in the presence of various amounts of the metal-free ligand-providing compound in excess of a b 1:2 zinc(II):compound ratio.
In each case, the material is dissolved initially in the aqueous Tris hydrochloride at a concentration of 10^-4 M in relation to zinc. The zinc complexes radiolabelled with ^65 Zn are prepared in situ in the buffer by the addition of ^65 Zn labelled ZnCl2 to an appropriate amount of the metal-free ligand-providing compound and subsequent adjustment of the pH to 7.4 by the addition of Tris free base. Acid washed glassware is used throughout and, following mixing of 5 ml of the 10^-4 M aqueous solution with 5 ml of n-octanol for 1 minute, the aqueous n-octanol mixture is centrifuged at 1,000 g for 30 seconds. […]

[7] = tested on: human erythrocytes; format: in vitro ADME; details: not told
Experimental: The zinc complex was formed in situ in the buffered solution using ^65 Zn labelled ZnSO4 at a concentration of 0.25 mM together with maltol or ethylpyromeconic acid in a molar ratio of zinc:compound of 1:0, 1:2, 1:5, 1:10 or 1:20, i.e. the concentration of the ligand-providing compound being 0, 0.5, 1.25, 2.5 or 5 mM, respectively. The proportions of 1:2, 1:5, 1:10 and 1:20 provide an increasing amount of the neutral 2:1 zinc(II) complex together with varying amounts of the free compound as explained in Example 4, a small amount of Tris free base (to about 2 mM) being added to avoid an acid pH on reaction to form the complex.
It will be seen that the uptake increases with an increase in the amount of free compound present as the proportion of zinc present as the 2:1 ligand:zinc(II) complex is increased through the mass action effect.

O=S(=O)([O-])[O-].[Zn+2] [zinc sulphate]
emetic property [1]: recognised emetics

Cc1occc(=O)c1O.[Zn] [zinc maltol]
zinc removed from the zinc complex [2]: over 95% | inhibition of the uptake of zinc [3]: no inhibition on the uptake of zinc | lability [4]: extremely labile

CCn1cccc(O)c1=O.[Zn] [zinc 1-ethyl-3-hydroxypyrid-2-one]
Uptake of zinc into serosal compartment of rat jejunal sac ([5]; Zinc:compound 1:2): 36.4 n. mole | Uptake of zinc into serosal compartment of rat jejunal sac ([5]; Zinc:compound 1:10): 24.2 n. mole

CC(=O)[O-].CC(=O)[O-].[Zn+2] [zinc acetate]
emetic property [1]: recognised emetics

Cc1occc(=O)c1O [maltol, 3-hydroxy-2-methyl-4-pyrone, reference compound]
Free compound Kpart ([6]; free ligand-providing compound, n-octanol/Tris hydrochloride 20 mM pH 7.4, 20° C.): 0.66

CCc1occc(=O)c1O [ethylpyromeconic acid, 2-ethyl-3-hydroxy-4-pyrone, reference compound]
Kpart compared with maltol (compound and its 2:1 zinc complex) [6]: higher than those for maltol | logD ([6]; n-octanol/tris buffer, pH 7.4): -0.125

CCc1occc(=O)c1[O-].CCc1occc(=O)c1[O-].[Zn+2] [zinc ethylpyromeconic acid]
Kpart compared with maltol (compound and its 2:1 zinc complex) [6]: higher than those for maltol | uptake of the 2:1 complex in tests on the permeation of erythrocytes [7]: greater uptake

[Zn+2] [zinc]
non-specific binding to the mucosal surface [3]: rapidly removed from the incubation medium by binding to the mucosal surface | permeation [3]: little permeation occurs
